Measurements taken from patent publication US9834520B2, “Heterocyclic compound” (TAKEDA PHARMACEUTICAL COMPANY LIMITED, priority 2013, dated 2017).
Where two headings read alike, the source gives them in different places.

How the values were obtained:
[1] = test system: human PBMC; test: IL17 production test in human PBMC; assay type: cell-based; details: 72 h, 10 μM of test compound, IL-17A in culture supernatant, 3 days, read-out: inhibitory rate (%)
Procedure: IL17 Production Test in Human PBMC
Peripheral blood mononuclear cells (PBMC) collected from human peripheral blood by a density gradient centrifugation method were stimulated by Dynabeads (registered trade mark; anti-CD3/CD28 antibody) and cultured at 37° C. for 3 days. The test compound was dissolved in DMSO and then added thereto. After culture for 3 days under such conditions, the concentration of IL-17A in the culture supernatant obtained by centrifugation was measured by ELISA to evaluate the effect of the compound on IL-17 production.

[2] = test system: Th17 cells; test: Mouse Th17 cell differentiation test (IL-17A by ELISA); assay type: cell-based; details: 96 h, 10 μM of test compound, IL-17A in culture supernatant, 4 days, read-out: inhibitory rate(%)
Procedure: Mouse Th17 Cell Differentiation Test
CD4 positive naive T cells were collected from the spleen cells of Balb/c mice (female, 8-11w) using CD4+CD62L+ T Cell Isolation kit II (Miltenyi Biotec). The CD4 positive naive T cells was plated in a 96 well plate (3×10^5 cells/well), and stimulated (37° C. for culture) with anti-mouse CD3ε antibody (10 μg/mL, solid phase) and anti-CD28 antibody (5 μg/mL) for 4 days in the presence of anti-IFN-γ antibody, anti-IL-4 antibody, anti-IL-2 antibody, IL-6, TGF-β and IL-23 to differentiate into Th17 cells. The compound was dissolved in DMSO and then added thereto. The cells were cultured under these conditions for 4 days, and differentiation of the Th17 cells was evaluated by using the concentration of IL-17A, which was measured by ELISA, in the culture supernatant obtained by centrifugation.

[3] = molecular target: T1, RORγt (Homo sapiens, UniProt P51449); test: Cofactor recruitment test (Alpha Screen, biotinylated SRC-1 peptide); assay type: biochemical; details: test compound 1 μM; read-out: signal value inhibitory rate (%)
T1 sequence (P51449 1-497 isoform P51449-2): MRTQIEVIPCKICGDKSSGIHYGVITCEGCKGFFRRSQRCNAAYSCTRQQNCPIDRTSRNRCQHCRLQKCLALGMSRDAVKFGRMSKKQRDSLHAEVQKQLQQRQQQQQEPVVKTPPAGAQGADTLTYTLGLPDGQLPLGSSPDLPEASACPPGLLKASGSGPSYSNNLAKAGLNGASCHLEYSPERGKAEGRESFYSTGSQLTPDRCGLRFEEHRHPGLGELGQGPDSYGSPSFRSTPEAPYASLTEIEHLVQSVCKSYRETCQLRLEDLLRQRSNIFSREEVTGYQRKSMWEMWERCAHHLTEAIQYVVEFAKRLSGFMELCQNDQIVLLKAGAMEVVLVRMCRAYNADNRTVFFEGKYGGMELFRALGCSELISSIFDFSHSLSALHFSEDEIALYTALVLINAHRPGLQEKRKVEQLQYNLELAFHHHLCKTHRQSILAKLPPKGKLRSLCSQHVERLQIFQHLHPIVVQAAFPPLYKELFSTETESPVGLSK
Procedure: Cofactor Recruitment Test
Cofactor recruitment test was performed by Alpha Screen (Histidine Detection Kit, PerkinElmer) method. First, a test compound diluted with an assay buffer (50 mM Tris-HCl (pH 7.5), 50 mM KCl, 1 mM DTT, 0.1% BSA) was added to a 384 well plate by 5 μL each. […] The mixture was stood in a dark place for 1 hr, and the signal value was measured by Envision (PerkinElmer).

[4] = molecular target: T1, RORγt; test: Jurkat reporter test (IL-17 ROR response element luciferase); assay type: cell-based; parameters: expressed in transfected cells; host or cells: Jurkat cells; details: test compound 3 μM, Jurkat cells, read-out: luminescence level inhibitory rate (%)
Procedure: The Jurkat cells used for the reporter test were cultured in a culture medium (RPMI (Invitrogen), 10% FCS (AusGeneX), 100 U/mL penicillin, 100 μg/mL streptomycin). On the day of the test, 4×10^7 cells were recovered by a centrifugal operation (1000 rpm, 5 min.) and suspended in PBS (phosphate buffered saline) (Invitrogen). Thereafter, the cells were recovered again by a centrifugal operation, and suspended in 2 mL of R buffer (NEON transfection kit, Invitrogen). […] Gene transfer was performed by Electroporation apparatus (NEON, Invitrogen) under the conditions of pulse voltage 1350 V, interval 10 milliseconds, number of times 3. The cells after gene transfer were suspended in 40 mL of a reaction medium (RPMI, 10% Lipid reduced FCS (HyClone), 10 mM HEPES (pH 7.5), 100 U/mL penicillin, 100 μg/mL streptomycin, 5 μM lovastatin), and plated in a 96 well plate by 90 μL each. A test compound diluted with the reaction medium was added by 10 μL each, and the cells were cultured overnight in an incubator. Bright-Glo (Promega) was added by 100 μL each, and the mixture was stirred at room temperature for 10 min, and the luminescence level was measured by Envision (PerkinElmer).

[5] = molecular target: T1, RORγt; test: RORγt binding test (TR-FRET, fluorescent-labeled cholesterol); details: binding inhibitory rate of fluorescent-labeled cholesterol to RORγt at test compound 1 μM
Procedure: The binding activity of the test compound to RORγt was measured by a time resolved fluorescence resonance energy transfer method (TR-FRET) utilizing histidine-tagged RORγt, fluorescent-labeled cholesterol (BODIPY-cholesterol, AVIVA) and terbium-labeled anti-histidine tag antibody (Invitrogen). First, a test compound diluted with an assay buffer (20 mM Tris-HCl (pH 7.5), 100 mM NaCl, 1 mM DTT, 0.1% BSA) was added to a 384 well plate by 3 μL each. Then, RORγt diluted with an assay buffer to 240 nM was added by 3 μL each, after which fluorescent-labeled cholesterol diluted with the assay buffer to 12 μM was added by 3 μL each, and the mixture was stood at room temperature for 20 min. Thereafter, a terbium-labeled anti-histidine tag antibody diluted with the assay buffer to 8 nM was added by 3 μL each. The mixture was stood at room temperature for 20 min, and fluorescence intensity (excitation wavelength 320 nm, fluorescence wavelength 520 nm, delay time 100 microseconds) was measured by Envision (PerkinElmer).

Row | inhibition at 3 µM [4] [%] | Structure (SMILES) | inhibition at 10 µM [1] [%] | inhibition at 10 µM [2] [%] | inhibition at 1 µM [3] [%] | inhibition at 3 µM ([4]; Jurkat) [%] | inhibition at 1 µM [5] [%]
1 | – | CC(CC(=O)Nc1ccc(C#N)c(Cl)c1)CC(=O)Nc1ccc2c(c1)c(=O)n(CC1CC1)c(=O)n2CC1CC1 (centres unmarked) [Example 2, N-(1,3-bis(cyclopropylmethyl)-2,4-dioxo-1,2,3,4-tetrahydroquinazolin-6-yl)-N′-(3-chloro-4-cyanophenyl)-3-methylpentanediamide] | 96 | 97 | – | – | –
2 | – | CCn1c(=O)c2cc(C(=O)NCC(C)CC(=O)Nc3ccc(C#N)c(Cl)c3)ccc2n(CC)c1=O (centres unmarked) [Example 4, N-(4-((3-chloro-4-cyanophenyl)amino)-2-methyl-4-oxobutyl)-1,3-diethyl-2,4-dioxo-1,2,3,4-tetrahydroquinazoline-6-carboxamide] | 97 | – | 105 | 116 | 96.7
3 | – | CCC1Oc2cc(NC(=O)CC(C)CC(=O)Nc3ccc(C#N)c(Cl)c3)ccc2N(CC)C1=O (centres unmarked) [Example 7, N-(3-chloro-4-cyanophenyl)-N′-(2,4-diethyl-3-oxo-3,4-dihydro-2H-1,4-benzoxazin-7-yl)-3-methylpentanediamide] | 100 | – | – | – | –
4 | – | CCN1C(=O)C(c2ccccc2)Oc2cc(NC(=O)CC(C)CC(=O)Nc3ccc(C#N)c(Cl)c3)ccc21 (centres unmarked) [Example 12, N-(3-chloro-4-cyanophenyl)-N′-(4-ethyl-3-oxo-2-phenyl-3,4-dihydro-2H-1,4-benzoxazin-7-yl)-3-methylpentanediamide] | 97 | 97 | 104 | 120 | 98.3
5 | – | CCn1c(=O)c2cc(C(=O)NCC(CC(=O)Nc3ccc(C#N)c(Cl)c3)C(C)C)ccc2n(CC)c1=O (centres unmarked) [Example 17, N-(4-((3-chloro-4-cyanophenyl)amino)-2-isopropyl-4-oxobutyl)-1,3-diethyl-2,4-dioxo-1,2,3,4-tetrahydroquinazoline-6-carboxamide] | 84 | – | 103 | 121 | 101
6 | 115 | CCn1c(=O)c2cc(NC(=O)CC(C)CNC(=O)c3ccc(C#N)c(Cl)c3)ccc2n(CC)c1=O (centres unmarked) [Example 23, 3-chloro-4-cyano-N-(4-((1,3-diethyl-2,4-dioxo-1,2,3,4-tetrahydroquinazolin-6-yl)amino)-2-methyl-4-oxobutyl)benzamide] | – | 94 | 104 | – | 97.3
7 | – | CCn1c(=O)c2cc(NC(=O)CC(C)CC(=O)Nc3ccc(C#N)c(Cl)c3)ccc2n(C[Si](C)(C)C)c1=O (centres unmarked) [Example 126, N-(3-chloro-4-cyanophenyl)-N′-(3-ethyl-2,4-dioxo-1-((trimethylsilyl)methyl)-1,2,3,4-tetrahydroquinazolin-6-yl)-3-methylpentanediamide] | – | – | 100 | 102 | 103
8 | – | CCn1c(=O)c2cc(NC(=O)CC(C)CC(=O)Nc3ccc(C#N)c(Cl)c3)cc(F)c2n(CC)c1=O (centres unmarked) [Example 129, N-(3-chloro-4-cyanophenyl)-N′-(1,3-diethyl-8-fluoro-2,4-dioxo-1,2,3,4-tetrahydroquinazolin-6-yl)-3-methylpentanediamide] | – | – | 100 | 102 | 100
9 | – | CCn1c(=O)c2cc(NC(=O)CC(C)CC(=O)Nc3ccc(C#N)c(Cl)c3)c(F)cc2n(CC)c1=O (centres unmarked) [Example 130, N-(3-chloro-4-cyanophenyl)-N′-(1,3-diethyl-7-fluoro-2,4-dioxo-1,2,3,4-tetrahydroquinazolin-6-yl)-3-methylpentanediamide] | – | – | 102 | 101 | 101
10 | – | CCn1c(=O)n(CC2CC2)c(=O)c2cc(NC(=O)CC[C@@H](O)C(=O)Nc3ccc(C#N)c(Cl)c3)ccc21 [Example 138, (2R)—N^1-(3-chloro-4-cyanophenyl)-N^5-(3-(cyclopropylmethyl)-1-ethyl-2,4-dioxo-1,2,3,4-tetrahydroquinazolin-6-yl)-2-hydroxypentanediamide] | – | – | 100 | 104 | 104
11 | – | CCn1c(=O)n(CC2CC2)c(=O)c2cc(NC(=O)CC[C@H](O)C(=O)Nc3ccc(C#N)c(Cl)c3)ccc21 [Example 139, (2S)—N^1-(3-chloro-4-cyanophenyl)-N^5-(3-(cyclopropylmethyl)-1-ethyl-2,4-dioxo-1,2,3,4-tetrahydroquinazolin-6-yl)-2-hydroxypentanediamide] | – | – | 102 | 104 | 102
12 | – | CCn1c(=O)n(CC2CC2)c(=O)c2cc(NC(=O)[C@@H](O)CCC(=O)Nc3ccc(C#N)c(Cl)c3)ccc21 [Example 141, (2S)—N^5-(3-chloro-4-cyanophenyl)-N^1-(3-(cyclopropylmethyl)-1-ethyl-2,4-dioxo-1,2,3,4-tetrahydroquinazolin-6-yl)-2-hydroxypentanediamide] | – | – | 102 | 103 | 102
